Assay results from ChEMBL document CHEMBL4342519, “Triazolo-Peptidomimetics: Novel Radiolabeled Minigastrin Analogs for Improved Tumor Targeting” (J Med Chem, 2020).
Active and inactive are the calls of the source. No cut-off for these calls is given here. *1 amine or outer side, *2 acyl side, *3 side chain or, on linkers, in order; H or OH if unused. Where a SMILES comes first, the peptide text is derived from it. [ ]: non-standard residue; d: D form. The star is where a group is joined. X2 = CCCC[C@@H](C(=O)[*:2])n1cc([C@H](Cc2c[nH]c3ccccc23)N[*:1])nn1; X4 = C[C@H](N[*:1])c1cn([C@@H](Cc2ccc(O)cc2)C(=O)[*:2])nn1; DOTA = O=C(O)CN1CCN(CC(=O)O)CCN(CC(=O)*)CCN(CC(=O)O)CC1; X3 = O=C([C@H](Cc1c[nH]c2ccccc12)n1cc(CN[*:1])nn1)[*:2]; X5 = C[C@@H](C(=O)[*:2])n1cc([C@@H](CCC(=O)O)N[*:1])nn1; X1 = O=C(Cn1cc([C@H](Cc2ccc(O)cc2)N[*:1])nn1)[*:2]; Nle = CCCC[C@H](N)C(=O)O

What was measured:
[1] = target: T1, Gastrin/cholecystokinin type B receptor (Homo sapiens) (UniProt P32239); experiment: Binding affinity to CCK2R (unknown origin) expressed in human A431 cells assessed as receptor-mediated drug internalization at 5 kBq incubated up to 240 mins using 177Lu labeled compound by gamma counting method relative to control; type: cell-based
T1 sequence (whole entry): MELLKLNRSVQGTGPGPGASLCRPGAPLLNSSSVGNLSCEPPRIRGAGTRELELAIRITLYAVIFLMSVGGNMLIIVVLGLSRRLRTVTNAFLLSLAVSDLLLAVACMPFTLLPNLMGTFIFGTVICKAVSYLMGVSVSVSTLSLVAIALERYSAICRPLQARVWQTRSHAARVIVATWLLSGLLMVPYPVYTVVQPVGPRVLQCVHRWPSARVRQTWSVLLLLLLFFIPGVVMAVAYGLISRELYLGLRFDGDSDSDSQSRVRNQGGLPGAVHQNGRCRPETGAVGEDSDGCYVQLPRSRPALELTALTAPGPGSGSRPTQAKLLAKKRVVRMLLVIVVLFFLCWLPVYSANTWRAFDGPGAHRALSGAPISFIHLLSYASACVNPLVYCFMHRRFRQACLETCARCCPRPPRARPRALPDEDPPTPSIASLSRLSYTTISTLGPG

[2] = Stability of compound in human plasma at 7.5 MBq assessed as intact compound measured after 24 hrs using 177Lu labeled compound by gamma-HPLC analysis; type: ADME, cell-free; conditions: for remaining at 24 h, 7.5 MBq: read-out: Stability; for Stability: 24 h
[3] = Drug uptake in tumor of CD1 nu/nu mouse xenografted with human A431 cells transfected with CCK2R at 0.5 MBq after 4 hrs using 177Lu labeled compound by Cobra-2 gamma counter method relative to control; type: ADME, tissue-based, Neoplasm
[4] = target: T2, Gastrin/cholecystokinin type B receptor (Homo sapiens, UniProt P32239); experiment: Displacement of [177Lu] PP-F11N from CCK2R (unknown origin) transfected in A431 cells incubated for 1 hr at 4 degree C followed by compound washout with PBS buffer using Lu3+ labeled compound by Cobra-2 gamma counter method; type: cell-based
T2 sequence (P32239 whole entry): T1 sequence (whole entry)

[5] = Lipophilicity, log D of compound in PBS buffer at 0.25 MBq and pH 7.4 using 177Lu labeled compound by shake-flask method; type: physicochemical
[6] = Half life in human plasma at 7.5 MBq measured up to 24 hrs at 37 degree C using 177Lu labeled compound by gamma-HPLC analysis; type: ADME, cell-free
[7] = target: T1, Gastrin/cholecystokinin type B receptor (Homo sapiens); experiment: Binding affinity to CCK2R (unknown origin) expressed in human A431 cells assessed as receptor-mediated drug internalization at 5 kBq incubated 4 hrs using 177Lu labeled compound by gamma counting method relative to control; type: cell-based
[8] = target: T1, Gastrin/cholecystokinin type B receptor (Homo sapiens); experiment: Potency index, ratio of [Nle15]MG11 IC50 to test compound IC50 for displacement of [177Lu] PP-F11N from CCK2R (unknown origin) transfected in A431 cells incubated for 1 hr at 4 degree C followed by compound washout with PBS buffer using Lu3+ labeled compound by Cobra-2 gamma counter method; type: cell-based
[9] = Drug uptake in tumor of CD1 nu/nu mouse xenografted with human A431 cells transfected with CCK2R at 0.5 MBq after 1 hr using 177Lu labeled compound by Cobra-2 gamma counter method; type: ADME, tissue-based, Neoplasm
[10] = Drug uptake in tumor of CD1 nu/nu mouse xenografted with human A431 cells transfected with CCK2R at 0.5 MBq after 24 hrs using 177Lu labeled compound by Cobra-2 gamma counter method relative to control; type: ADME, tissue-based, Neoplasm
[11] = Ratio of drug uptake in tumor to kidney in CD1 nu/nu mouse xenografted with human A431 cells transfected with CCK2R at 0.5 MBq after 4 hrs using 177Lu labeled compound by Cobra-2 gamma counter method; type: ADME, tissue-based
[12] = Drug recovery in tumor of CD1 nu/nu mouse xenografted with human A431 cells transfected with CCK2R at 0.5 MBq after 24 hrs using 177Lu labeled compound by Cobra-2 gamma counter method relative to control; type: ADME, tissue-based, Neoplasm
[13] = Ratio of half life of compound to [Nle15]MG11 in human plasma at 7.5 MBq measured up to 24 hrs at 37 degree C using 177Lu labeled compound by gamma-HPLC analysis; type: ADME, cell-free
[14] = target: T1, Gastrin/cholecystokinin type B receptor (Homo sapiens); experiment: Binding affinity to CCK2R (unknown origin) expressed in human A431 cells assessed as receptor-mediated drug internalization at 5 kBq incubated 2 to 4 hrs using 177Lu labeled compound by gamma counting method relative to control; type: cell-based
[15] = Drug uptake in tumor of CD1 nu/nu mouse xenografted with human A431 cells transfected with CCK2R at 0.5 MBq, iv after 4 hrs using 177Lu labeled compound by Cobra-2 gamma counter method relative to [Nle15]MG11; type: ADME, organism-based, Neoplasm; conditions: in vivo

| SMILES | Drug uptake [1] | remaining at 24 h, 7.5 MBq [2] | Drug uptake [3] | IC50 [4] | logD ([5]; PBS buffer, read-out: logD) | half-life at 7.5 MBq [6] | Drug uptake [7] | Ratio IC50 [8] | Drug uptake [9] | Drug uptake [10] | Ratio [11] | Drug recovery [12] | Ratio [13] | Stability [2] | logD ([5]; buffer) | fold change (FC) [14] | Ratio [15] |
| --- | --- | --- | --- | --- | --- | --- | --- | --- | --- | --- | --- | --- | --- | --- | --- | --- | --- |
| CCCC[C@H](NC(=O)[C@H](Cc1c[nH]c2ccccc12)NC(=O)CNC(=O)[C@H](Cc1ccc(O)cc1)NC(=O)[C@H](C)NC(=O)[C@@H](CCC(=O)O)NC(=O)CN1CCN(CC(=O)O)CCN(CC(=O)O)CCN(CC(=O)O)CC1)c1cn([C@@H](CC(=O)O)C(=O)N[C@@H](Cc2ccccc2)C(N)=O)nn1 | 0.2% | > 50% | Active | > 50000 nM | -3.75 | 114 h | – | – | – | – | – | – | – | – | – | – | – |
| CCCC[C@H](NC(=O)[C@H](Cc1c[nH]c2ccccc12)NC(=O)CNC(=O)C[C@H](Cc1ccc(O)cc1)NC(=O)[C@H](C)NC(=O)[C@@H](CCC(=O)O)NC(=O)CN1CCN(CC(=O)O)CCN(CC(=O)O)CCN(CC(=O)O)CC1)C(=O)N[C@@H](CC(=O)O)C(=O)N[C@@H](Cc1ccccc1)C(N)=O | 37.4% | – | – | 25.8 nM | -3.83 | 4.7 h | – | – | – | – | – | – | – | – | – | – | – |
| CCCC[C@H](NC(=O)[C@H](Cc1c[nH]c2ccccc12)NC(=O)CNC(=O)[C@H](Cc1ccc(O)cc1)NC(=O)[C@H](C)NC(=O)[C@@H](CCC(=O)O)NC(=O)CN1CCN(CC(=O)O)CCN(CC(=O)O)CCN(CC(=O)O)CC1)C(=O)N[C@@H](CC(=O)O)C(=O)N[C@@H](Cc1ccccc1)c1c[nH]nn1 | 2.5% | > 50% | – | 200 nM | -3.69 | 34.9 h | – | – | – | – | – | – | – | – | – | – | – |
| CCCC[C@H](NC(=O)[C@H](Cc1c[nH]c2ccccc12)NC(=O)CCNC(=O)[C@H](Cc1ccc(O)cc1)NC(=O)[C@H](C)NC(=O)[C@@H](CCC(=O)O)NC(=O)CN1CCN(CC(=O)O)CCN(CC(=O)O)CCN(CC(=O)O)CC1)C(=O)N[C@@H](CC(=O)O)C(=O)N[C@@H](Cc1ccccc1)C(N)=O | 44.5% | – | – | 18.8 nM | -3.73 | 8.5 h | – | – | – | – | – | – | – | – | – | – | – |
| CCCC[C@H](NC(=O)[C@H](Cc1c[nH]c2ccccc12)NC(=O)CNC(=O)[C@H](Cc1ccc(O)cc1)NC(=O)[C@H](C)NC(=O)[C@@H](CCC(=O)O)NC(=O)CN1CCN(CC(=O)O)CCN(CC(=O)O)CCN(CC(=O)O)CC1)C(=O)N[C@@H](CC(=O)O)c1cn([C@@H](Cc2ccccc2)C(N)=O)nn1 | 0.1% | > 50% | – | > 50000 nM | -3.95 | 35.9 h | – | – | – | – | – | – | – | – | – | – | – |
| CCCC[C@@H](C(=O)N[C@@H](CC(=O)O)C(=O)N[C@@H](Cc1ccccc1)C(N)=O)n1cc([C@H](Cc2c[nH]c3ccccc23)NC(=O)CNC(=O)[C@H](Cc2ccc(O)cc2)NC(=O)[C@H](C)NC(=O)[C@@H](CCC(=O)O)NC(=O)CN2CCN(CC(=O)O)CCN(CC(=O)O)CCN(CC(=O)O)CC2)nn1 ({DOTA}-[dE]AYG[X2]DF-NH2) | 33.1% | > 50% | Active | 25.4 nM | -3.98 | 350 h | Active | – | – | – | – | – | 90 | – | – | – | – |
| CCCC[C@H](NC(=O)[C@H](Cc1c[nH]c2ccccc12)NC(=O)CNC(=O)[C@H](Cc1ccc(O)cc1)n1cc([C@H](C)NC(=O)[C@@H](CCC(=O)O)NC(=O)CN2CCN(CC(=O)O)CCN(CC(=O)O)CCN(CC(=O)O)CC2)nn1)C(=O)N[C@@H](CC(=O)O)C(=O)N[C@@H](Cc1ccccc1)C(N)=O ({DOTA}-[dE][X4]GW[Nle]DF-NH2) | 29.6% | > 50% | Active | 20.9 nM | -3.9 | 51.4 h | Active | – | – | – | – | – | – | – | – | – | – |

Now those with a lower IC50 [4], led by results:

| Drug uptake [1] | remaining at 24 h, 7.5 MBq [2] | Drug uptake [3] | IC50 [4] | logD ([5]; PBS buffer, read-out: logD) | half-life at 7.5 MBq [6] | Drug uptake [7] | Ratio IC50 [8] | Drug uptake [9] | Drug uptake [10] | Ratio [11] | Drug recovery [12] | Ratio [13] | Stability [2] | logD ([5]; buffer) | fold change (FC) [14] | Ratio [15] | SMILES |
| --- | --- | --- | --- | --- | --- | --- | --- | --- | --- | --- | --- | --- | --- | --- | --- | --- | --- |
| 39.6% | – | Active | 8 nM | -3.98 | 7.7 h | Active | 2 | – | – | – | – | – | – | – | – | – | CCCC[C@H](NC(=O)[C@H](Cc1c[nH]c2ccccc12)NC(=O)CNC(=O)[C@H](Cc1ccc(O)cc1)NC(=O)[C@H](C)n1cc([C@@H](CCC(=O)O)NC(=O)CN2CCN(CC(=O)O)CCN(CC(=O)O)CCN(CC(=O)O)CC2)nn1)C(=O)N[C@@H](CC(=O)O)C(=O)N[C@@H](Cc1ccccc1)C(N)=O ({DOTA}-[X5]YGW[Nle]DF-NH2) |
| 32.2% | – | 1.48 % ID/g | 15.4 nM | -3.86 | 3.9 h | 11.7% | – | Active | < 0.9 % ID/g | 1.83 | 34% | – | – | – | – | – | CCCC[C@H](NC(=O)[C@H](Cc1c[nH]c2ccccc12)NC(=O)CNC(=O)[C@H](Cc1ccc(O)cc1)NC(=O)[C@H](C)NC(=O)[C@@H](CCC(=O)O)NC(=O)CN1CCN(CC(=O)O)CCN(CC(=O)O)CCN(CC(=O)O)CC1)C(=O)N[C@@H](CC(=O)O)C(=O)N[C@@H](Cc1ccccc1)C(N)=O ({DOTA}-[dE]AYGW[Nle]DF-NH2) |
| 41.7% | – | Active | 15.6 nM | -4 | 3.8 h | Active | – | – | – | – | – | – | Unstable | – | – | – | CCCC[C@H](NC(=O)[C@H](Cc1c[nH]c2ccccc12)n1cc(CNC(=O)[C@H](Cc2ccc(O)cc2)NC(=O)[C@H](C)NC(=O)[C@@H](CCC(=O)O)NC(=O)CN2CCN(CC(=O)O)CCN(CC(=O)O)CCN(CC(=O)O)CC2)nn1)C(=O)N[C@@H](CC(=O)O)C(=O)N[C@@H](Cc1ccccc1)C(N)=O ({DOTA}-[dE]AY[X3][Nle]DF-NH2) |
| 54.3% | – | 3.91 % ID/g | 1.7 nM | – | 2.6 h | 31% | 10 | Active | Active | 5.81 | 75% | – | Unstable | -4.06 | 2 | 2.6 | CCCC[C@H](NC(=O)[C@H](Cc1c[nH]c2ccccc12)NC(=O)Cn1cc([C@H](Cc2ccc(O)cc2)NC(=O)[C@H](C)NC(=O)[C@@H](CCC(=O)O)NC(=O)CN2CCN(CC(=O)O)CCN(CC(=O)O)CCN(CC(=O)O)CC2)nn1)C(=O)N[C@@H](CC(=O)O)C(=O)N[C@@H](Cc1ccccc1)C(N)=O ({DOTA}-[dE]A[X1]W[Nle]DF-NH2) |
